According to the supplement of paper PMC10307832:

Legend:
Test in all cases: relative viability (nuclei count vs DMSO), 5 days (fraction); higher = more cells survive
[1] = compound: C1/C(=C\C2=CC=CS2)/C(=O)/C(=C/C3=CC=CS3)/C1 + O=C(c1cc(Cc2n[nH]c(=O)c3ccccc23)ccc1F)N1CCN(C(=O)C2CC2)CC1 [Olaparib] (partner 8 µM)
Method in brief: (§1)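 Lung cancer cell lines were seeded in 1536-well plates and dosed by pin tool the next day, with either a single drug or a fixed anchor-drug dose combined with five library-drug doses (not always all listed) spaced in √10 steps. Five days later, one step fixed the cells and stained their nuclei (final 0.05% Triton X-100, 1% formaldehyde, 1 ug/ml Hoechst), and nuclei were counted on 4× images. Relative viability is the nuclei count in treated wells divided by the count in vehicle wells, and each value is the median of duplicate plates.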

[2] = compound: C1/C(=C\C2=CC=CS2)/C(=O)/C(=C/C3=CC=CS3)/C1 + C[C@@H](Oc1cc(-c2cnn(C3CCNCC3)c2)cnc1N)c1c(Cl)ccc(F)c1Cl [Crizotinib] (partner 1 µM)
Method in brief: as §1

[3] = compound: C1/C(=C\C2=CC=CS2)/C(=O)/C(=C/C3=CC=CS3)/C1 + C[C@]1(O)C[C@@H](c2nc(-c3ccc4ccc(-c5ccccc5)nc4c3)c3c(N)nccn32)C1 [Linsitinib] (partner 1 µM)
Method in brief: as §1

[4] = compound: C1/C(=C\C2=CC=CS2)/C(=O)/C(=C/C3=CC=CS3)/C1 + Cc1nc(NC(=O)N2CCC[C@H]2C(N)=O)sc1-c1ccnc(C(C)(C)C(F)(F)F)c1 [Alpelisib] (partner 2 µM)
Method in brief: as §1

| Cell Line | relative viability ([1]; first compound 0.2 µM) | relative viability ([1]; first compound 0.6325 µM) | relative viability ([1]; first compound 2 µM) | relative viability ([1]; first compound 6.325 µM) | relative viability ([1]; first compound 20 µM) | relative viability ([2]; first compound 0.2 µM) | relative viability ([2]; first compound 0.6325 µM) | relative viability ([2]; first compound 2 µM) | relative viability ([2]; first compound 6.325 µM) | relative viability ([2]; first compound 20 µM) | relative viability ([3]; first compound 0.2 µM) | relative viability ([3]; first compound 0.6325 µM) | relative viability ([3]; first compound 2 µM) | relative viability ([3]; first compound 6.325 µM) | relative viability ([3]; first compound 20 µM) | relative viability ([4]; first compound 0.2 µM) | relative viability ([4]; first compound 0.6325 µM) | relative viability ([4]; first compound 2 µM) | relative viability ([4]; first compound 6.325 µM) | relative viability ([4]; first compound 20 µM) |
| --- | --- | --- | --- | --- | --- | --- | --- | --- | --- | --- | --- | --- | --- | --- | --- | --- | --- | --- | --- | --- |
| HCC-44 | 0.959 | 0.985 | 0.907 | 0.896 | 0.989 | 0.802 | 0.862 | 0.712 | 0.734 | 0.798 | 0.633 | 0.748 | 0.693 | 0.592 | 0.655 | 0.751 | 0.856 | 0.813 | 0.668 | 0.799 |
| HCC-78 | 0.794 | 0.872 | 0.906 | 0.87 | 0.81 | 0.334 | 0.35 | 0.354 | 0.313 | 0.327 | 0.649 | 0.554 | 0.57 | 0.535 | 0.496 | 0.349 | 0.313 | 0.359 | 0.321 | 0.342 |
| HCC-366 | 0.382 | 0.35 | 0.41 | 0.269 | 0.353 | 0.421 | 0.651 | 0.525 | 0.451 | 0.513 | 0.701 | 0.574 | 0.647 | 0.467 | 0.6 | 0.502 | 0.393 | 0.378 | 0.345 | 0.421 |
| HCC-827 | 0.589 | 0.582 | 0.72 | 0.646 | 0.597 | 0.961 | 0.898 | 0.949 | 0.635 | 0.978 | 1.05 | 0.953 | 0.923 | 0.929 | 0.903 | 0.903 | 0.924 | 1.02 | 0.935 | 0.98 |
| HOP-62 | 0.433 | 0.596 | 0.391 | 0.359 | 0.272 | 0.985 | 1.07 | 1 | 0.712 | 0.804 | 1.09 | 0.879 | 0.853 | 0.982 | 0.815 | 1.01 | 0.741 | 1.09 | 0.764 | 0.93 |
| IA-LM | 0.874 | 0.871 | 0.755 | 0.618 | 0.879 | 1.19 | 0.721 | 0.651 | 0.747 | 1 | 0.623 | 0.895 | 0.623 | 0.616 | 0.523 | 0.728 | 0.746 | 0.651 | 0.679 | 0.768 |
| LC-2-ad | 0.73 | 0.728 | 0.684 | 0.577 | 0.713 | 0.488 | 0.503 | 0.454 | 0.368 | 0.484 | 0.832 | 0.838 | 0.875 | 0.69 | 0.847 | 0.961 | 0.956 | 0.942 | 0.702 | 0.824 |
| LCLC-97TM1 | 0.459 | 0.389 | 0.344 | 0.275 | 0.347 | 0.328 | 0.433 | 0.453 | 0.252 | 0.462 | 0.183 | 0.169 | 0.187 | 0.158 | 0.197 | 0.255 | 0.225 | 0.272 | 0.212 | 0.248 |
| LCLC-103H | 0.738 | 0.795 | 0.739 | 0.68 | 0.722 | 1.09 | 1.03 | 1.08 | 0.906 | 1.03 | 1.12 | 1.16 | 1.15 | 0.975 | 0.995 | 1.05 | 0.926 | 1.02 | 0.73 | 0.956 |
| LK-2 | 0.769 | 0.787 | 0.765 | 0.853 | 0.753 | 0.249 | 0.225 | 0.218 | 0.215 | 0.242 | 0.641 | 0.857 | 0.633 | 0.583 | 0.59 | 0.94 | 1.02 | 0.856 | 1.13 | 0.813 |
| LOU-NH91 | 0.943 | 0.899 | 0.915 | 0.872 | 0.928 | 0.739 | 0.572 | 0.743 | 0.679 | 0.714 | 1 | 0.898 | 1.03 | 0.806 | 1.02 | 0.776 | 0.746 | 0.769 | 0.671 | 0.729 |
| NCI-H522 | 0.626 | 0.643 | 0.657 | 0.625 | 0.742 | – | – | – | – | – | – | – | – | – | – | – | – | – | – | – |
| NCI-H1395 | 0.494 | 0.53 | 0.435 | 0.458 | 0.453 | – | – | – | – | – | 1.12 | 1.06 | 1.29 | 0.89 | 1.05 | 1.1 | 1.04 | 1.17 | 1.02 | 1.08 |
| NCI-H1563 | – | – | – | – | – | 0.843 | 0.887 | 0.899 | 0.832 | 0.987 | 1.43 | 1.16 | 1.28 | 0.893 | 1.08 | 0.933 | 0.912 | 0.881 | 0.93 | 1.02 |
| NCI-H1648 | 0.855 | 0.81 | 1.03 | 0.792 | 0.814 | – | – | – | – | – | – | – | – | – | – | – | – | – | – | – |
| NCI-H1650 | 0.854 | 0.793 | 0.734 | 0.69 | 0.717 | 1.16 | 1.02 | 1.14 | 0.605 | 0.923 | – | – | – | – | – | – | – | – | – | – |
| NCI-H1793 | 0.904 | 0.931 | 0.978 | 0.782 | 0.893 | – | – | – | – | – | 0.815 | 0.855 | 0.913 | 0.855 | 0.685 | 0.64 | 0.656 | 0.763 | 0.696 | 0.559 |
| NCI-H2170 | 0.619 | 0.645 | 0.595 | 0.422 | 0.536 | 1.29 | 1.29 | 1.26 | 1.03 | 1.07 | – | – | – | – | – | 0.888 | 0.775 | 0.758 | 0.638 | 0.749 |
| NCI-H2342 | 0.392 | 0.464 | 0.454 | 0.419 | 0.435 | – | – | – | – | – | – | – | – | – | – | – | – | – | – | – |
| SW 900 | 0.752 | 0.839 | 0.87 | 0.882 | 0.99 | – | – | – | – | – | – | – | – | – | – | – | – | – | – | – |
